Measured values taken from paper PMC11215747, “Improved Rigidin-Inspired Antiproliferative Agents with Modifications on the 7-Deazahypoxanthine C7/C8 Ring Systems” (Journal of Medicinal Chemistry, 2024).
Entries after “also recorded” stand apart in the source; their conditions may differ. Like-named read-outs stand apart in the source and are kept apart here.

Tests used:
[1] = tested on: PNT1A cells; assay: MTT cytotoxicity assay against normal epithelial cell line PNT1A; type: cell-based; conditions: molecular formula strings CSV, read-out: PNT1A GI50
Description: (§1) The 3-(4,5-dimethylthiazol-2-yl)-2,5-diphenyltetrazolium bromide (MTT) assay was employed to evaluate the antiproliferative activities of the synthesized 7-deazahypoxathine analogues. The HeLa, PNT1A, or PANC-1 cell lines were assessed by trypsinizing and seeding 4 × 10^3 cells per well into 96-well plates. Synthesized compounds were dissolved in DMSO at a concentration of either 50 mM or 100 mM before cell treatment. Cells were grown for 24 h and then treated with compounds at concentrations ranging from 0.04 to 100 μM and incubated for 48 h in 200 μL media. Twenty microliters of MTT reagent in serum-free medium (5 mg/mL) was added to each well and incubated further for 2 h. Media was removed and the resulting formazan crystals were resolubilized in 200 μL of DMSO. A Thermomax Molecular Device plate reader was utilized to measure A490. Experiments were performed in quadruplicate and repeated at least twice for each compound. The control comprised of cells treated with 0.1% DMSO. One micromolar phenyl arsine oxide (PAO) was utilized as a positive killing control.

[2] = tested on: HeLa cells; assay: Microtubule organization by immunolabeling in HeLa cells; type: cell-based, Human; conditions: 4 h; for effect on interphase microtubules / effect on spindle morphology: at GI50 concentrations
Description: To examine microtubule morphology in rigidin-treated cells, HeLa cells were incubated for 4 h in the presence or absence of test compound before being fixed with 3.7% formaldehyde in PBS and permeabilized with 0.1% Triton X-100 in PBS. After blocking the cells with 3% bovine serum albumin in PBS, they were probed with antibodies for the centromere marker CENP-B (Abcam, code ab25734) and tubulin (Sigma, code sc-53029), which were detected with Alexa Fluor-labeled secondary antibodies (Thermofisher). Hoechst 33342 (1 mg/mL, Thermofisher H3570) was used to stain DNA. Samples were mounted on glass slides and imaged using Andor Dragonfly 505 spinning disk confocal system mounted on an Olympus IX83 inverted microscope. Figures were created with Adobe Photoshop CS5. All drugs were resuspended in DMSO, and 0.1% DMSO served as a carrier control.

[3] = tested on: HeLa cells; assay: Annexin V apoptosis assay and cell-fate tracking in HeLa cells; type: cell-based, Human; conditions: 20 nM; for apoptosis at the 30 hour time point (Annexin V fluorescence): 6 biological replicates, one-way ANOVA amongst compounds; for total numbers of cells that died following mitotic arrest: single-cell tracking, >130 cells per treatment
Description: To directly assess apoptosis in living cells, HeLa cells were plated (six biological replicates per condition) in 96-well Imagelock Plates (Sartorius BA-04855) at a density of 1,562.5 cells/cm^2. The following day, cells were placed in media containing IncuCyte Annexin V Dye (Sartorius 4642) supplemented with either 0.1% Dimethyl sulfoxide or test compounds (20 nM), and plates were placed in a Sartorius Incucyte S3 live cell imaging system. Plates were scanned hourly, with phase contrast and green fluorescence images were acquired at three positions per well. Raw fluorescence data was processed using Incucyte software, and Prism Graphpad was used for data visualization and statistical analysis. To track individual cell fates, combined phase contrast/fluorescence time lapse sequences were exported from multiple wells per condition, and cell fates individual cells were scored and tabulated using Graphpad Prism software.

[4] = target: T1, tubulin (Sus scrofa, UniProt P02554); assay: Fluorescence-based tubulin polymerization assay; type: biochemical; conditions: relative to 1% DMSO control
T1 construct: purchased Cytoskeleton, Inc
T1 sequence (P02554 whole entry): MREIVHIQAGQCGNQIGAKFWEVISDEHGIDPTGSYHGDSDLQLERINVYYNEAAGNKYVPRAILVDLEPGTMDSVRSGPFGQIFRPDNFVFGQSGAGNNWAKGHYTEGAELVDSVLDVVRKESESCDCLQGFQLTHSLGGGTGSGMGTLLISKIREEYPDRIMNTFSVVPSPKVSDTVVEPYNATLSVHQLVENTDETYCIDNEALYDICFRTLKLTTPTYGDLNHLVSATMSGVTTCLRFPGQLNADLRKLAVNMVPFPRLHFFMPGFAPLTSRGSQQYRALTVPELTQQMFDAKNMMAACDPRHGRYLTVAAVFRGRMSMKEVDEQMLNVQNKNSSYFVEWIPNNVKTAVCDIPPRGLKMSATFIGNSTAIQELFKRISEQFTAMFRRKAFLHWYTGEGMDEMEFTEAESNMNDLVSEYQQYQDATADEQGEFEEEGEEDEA
T1 sequence (P02550 whole entry partner): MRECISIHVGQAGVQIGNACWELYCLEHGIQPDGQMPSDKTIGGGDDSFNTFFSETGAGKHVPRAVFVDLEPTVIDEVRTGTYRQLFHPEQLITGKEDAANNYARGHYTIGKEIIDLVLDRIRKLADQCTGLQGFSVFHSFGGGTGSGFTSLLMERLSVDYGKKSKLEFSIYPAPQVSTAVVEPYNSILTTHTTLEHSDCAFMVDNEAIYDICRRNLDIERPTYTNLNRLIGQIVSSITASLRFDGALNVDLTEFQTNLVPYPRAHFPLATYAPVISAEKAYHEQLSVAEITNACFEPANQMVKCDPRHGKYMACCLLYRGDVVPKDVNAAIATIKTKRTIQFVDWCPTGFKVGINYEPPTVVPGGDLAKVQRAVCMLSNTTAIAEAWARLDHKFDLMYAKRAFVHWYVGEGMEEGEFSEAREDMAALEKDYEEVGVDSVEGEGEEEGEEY
Description: The fluorescence-based tubulin polymerization assay from Cytoskeleton, Inc. was used. […] The tubulin reaction mixture was prepared per manufacturer’s instructions, kept on ice, and used within ∼15 min of preparation. A Biotek Synergy H4 hybrid multimode plate reader was preheated to 37 °C. Prior to starting the assay, a half-area black 96-well plate was preheated within the plate reader. A volume of 5 μL of each of the tested samples was pipetted into separate wells of the plate and incubated in the warm plate reader for 1 min.

[5] = tested on: HeLa cells; assay: MTT antiproliferative assay against HeLa cells; type: cell-based, Human
Description: as §1, with “control. […]” for “control.”

[6] = Stability of compound in solution; type: physicochemical; conditions: in solution / over time
[7] = design: method as in PMID 23927793; conditions: cell line not given; cited from earlier work
[8] = Aqueous solubility by laser nephelometry; type: physicochemical; conditions: initial analysis
[9] = 25 μM, averaged from two experiments
[10] = Homo sapiens, MTT assay, 48 h treatment, relative to DMSO control, two independent determinations, each in quadruplicate, read-out: GI50 (μM)± SD
[11] = Homo sapiens, MTT, 48 h, average and SD from two independent determinations, each in quadruplicate (footnote c), read-out: GI50 (μM) ± SD

5-(3,5-Difluorophenyl)-6-[4-(2-ethoxyethoxy)benzoyl]-2-(pent-4-yn-1-yl)-1,7-dihydro-4H-pyrrolo[2,3-d]pyrimidin-4-one [Compound 60]
GI50 [1]: 0.048 ± 0.01 µM
effect on interphase microtubules [2]: no striking effects on interphase microtubules
effect on spindle morphology [2]: remarkable effects on the spindle morphology
apoptosis at the 30 hour time point (Annexin V fluorescence) [3]: no significant differences
total numbers of cells that died following mitotic arrest [3]: 85%

6-[4-(2-Ethoxyethoxy)benzoyl]-5-(3-fluorophenyl)-2-(pent-4-yn-1-yl)-1,7-dihydro-4H-pyrrolo[2,3-d]pyrimidin-4-one [Compound 59]
GI50 [1]: 0.041 ± 0.011 µM
effect on interphase microtubules [2]: no striking effects on interphase microtubules
effect on spindle morphology [2]: remarkable effects on the spindle morphology
effect on in vitro tubulin polymerization [4, 9]: potent inhibition of microtubule assembly; also recorded: completely suppress tubulin polymerization
GI50 ([5]; MTT, 48 h, average of eight repeats determined over 5 weeks (footnote d), read-out: GI50 (μM) ± SD): 0.016 ± 0.004 µM
apoptosis at the 30 hour time point (Annexin V fluorescence) [3]: no significant differences
total numbers of cells that died following mitotic arrest [3]: 87%

6-[4-(2-Ethoxyethoxy)benzoyl]-5-(6-fluoropyridin-2-yl)-2-(pent-4-yn-1-yl)-1,7-dihydro-4H-pyrrolo[2,3-d]pyrimidin-4-one [Compound 61]
stability [6]: unstable over time; also recorded: clear degradation of the compound in solution
GI50 ([5]; tested once, compound degraded in solution, read-out: GI50): 0.0224 µM

C#CCCCc1nc(=O)c2c(-c3ccccc3C)c(C(=O)c3ccccc3)[nH]c2[nH]1 [Compound 13, 6-Benzoyl-2-(pent-4-yn-1-yl)-5-(o-tolyl)-1,7-dihydro-4H-pyrrolo[2,3-d]pyrimidin-4-one]
GI50 [5, 10]: 0.142 ± 0.044 µM

C#CCCCc1nc(=O)c2c(-c3c(C)cccc3C)c(C(=O)c3ccccc3)[nH]c2[nH]1 [Compound 14, 6-Benzoyl-5-(2,6-dimethylphenyl)-2-(pent-4-yn-1-yl)-1,7-dihydro-4H-pyrrolo[2,3-d]pyrimidin-4-one]
GI50 [5, 10]: 2.3 ± 0.09 µM

C#CCCCc1nc(=O)c2c(-c3ccc(N4CCOCC4)cc3)c(C(=O)c3ccccc3)[nH]c2[nH]1 [Compound 15, 6-Benzoyl-5-(4-morpholinophenyl)-2-(pent-4-yn-1-yl)-1,7-dihydro-4H-pyrrolo[2,3-d]pyrimidin-4-one]
decrease in antiproliferative activity compared to lead compound 1 [5]: 500 fold
GI50 [5, 10]: 11.3 ± 0.65 µM

C#CCCCc1nc(=O)c2c(-c3ccccc3)c(C(=O)c3ccccc3C)[nH]c2[nH]1 [Compound 21, 6-(2-Methylbenzoyl)-2-(pent-4-yn-1-yl)-5-phenyl-1,7-dihydro-4H-pyrrolo[2,3-d]pyrimidin-4-one]
GI50 ([1]; Homo sapiens, PNT1A): 0.053 ± 0.012 µM
GI50 [5, 10]: 0.062 ± 0.005 µM

C#CCCCc1nc(=O)c2c(-c3ccccc3)c(C(=O)c3ccc(N4CCOCC4)cc3)[nH]c2[nH]1 [Compound 27, 6-(4-Morpholinobenzoyl)-2-(pent-4-yn-1-yl)-5-phenyl-1,7-dihydro-4H-pyrrolo[2,3-d]pyrimidin-4-one]
GI50 ([1]; Homo sapiens, PNT1A): 0.049 ± 0.02 µM
GI50 [5, 10]: 0.025 ± 0.002 µM

CC#CCCc1nc(=O)c2c(-c3ccccc3)c(C(=O)c3ccc(N4CCOCC4)cc3)[nH]c2[nH]1 [Compound 30, 6-(4-Morpholinobenzoyl)-2-(pent-3-yn-1-yl)-5-phenyl-1,7-dihydro-4H-pyrrolo[2,3-d]pyrimidin-4-one]
GI50 [5, 10]: 0.043 ± 0.002 µM
reduction in activity following isomerization to the internal alkyne ([5]; terminal versus internal alkyne analogues (1, 27 vs 31, 30)): 2 fold

O=C(c1ccc(OCc2ccccc2)cc1)c1[nH]c2[nH]cnc(=O)c2c1-c1ccccc1 [Compound 32]
GI50 [7]: 0.045 ± 0.004 µM

C#CCCCc1nc(=O)c2c(-c3ccccc3)c(C(=O)c3ccc(OCCN4CCOCC4)cc3)[nH]c2[nH]1 [Compound 34, 6-[4-(2-Morpholinoethoxy)benzoyl]-2-(pent-4-yn-1-yl)-5-phenyl-1,7-dihydro-4H-pyrrolo[2,3-d]pyrimidin-4-one]
effect on interphase microtubules [2]: no striking effects on interphase microtubules
effect on spindle morphology [2]: remarkable effects on the spindle morphology
syntelic chromosome attachments ([2]; lower concentrations (GI25)): still prevalent
effect on in vitro tubulin polymerization [4, 9]: potent inhibition of microtubule assembly; also recorded: completely suppress tubulin polymerization
decrease in antiproliferative activity compared to lead compound 1 [5]: ~20 fold
GI50 [5, 11]: 0.444 ± 0.03 µM
aqueous solubility relative to the other compounds [8]: significantly more soluble

C#CCCCc1nc(=O)c2c(-c3ccccc3)c(C(=O)c3ccc(OCCN4CCCC4)cc3)[nH]c2[nH]1 [Compound 35, 2-(Pent-4-yn-1-yl)-5-phenyl-6-{4-[2-(pyrrolidin-1-yl)ethoxy]benzoyl}-1,7-dihydro-4H-pyrrolo[2,3-d]pyrimidin-4-one]
decrease in antiproliferative activity compared to lead compound 1 [5]: ~150 fold
GI50 [5, 11]: 2.87 ± 0.103 µM
aqueous solubility relative to the other compounds [8]: significantly more soluble

CC(=O)O[C@H]1C(=O)[C@@]2(C)[C@H]([C@H](OC(=O)c3ccccc3)[C@]3(O)C[C@H](OC(=O)[C@H](O)[C@@H](NC(=O)c4ccccc4)c4ccccc4)C(C)=C1C3(C)C)[C@]1(OC(C)=O)CO[C@@H]1C[C@@H]2O [Paclitaxel, paclitaxel, reference compound]
effect on in vitro tubulin polymerization ([4]; 3 μM): promotes microtubule formation
effect on in vitro tubulin polymerization ([4]; 3 μM, listed as paclitaxel): potent enhancement of microtubule formation
